# Where two headings read alike, the source gives them in different places.
# Experiments:
# [1] = test system: pyrethroid-susceptible strain of Aedes aegypti (Orlando); type: in vivo; settings: topical; for KD50: 1-hr; for LD50: 24-hr
# Experimental: (§1) Aedes aegypti mosquitoes (susceptible Orlando strain and pyrethroid resistant Puerto Rico strain) were reared using standard protocols and provided by the United States Department of Agriculture—Center of Medical, Agricultural, and Veterinary Entomology (Gainesville, FL). Adult mosquitoes were anesthetized on ice, and the females treated with 0.2 μL of ethanolic solution using a repeating micro-applicator (Hamilton Co., Reno, NV). Ten females were used per concentration and taken from at least three different emerged cohorts. Knockdown (defined as inability to fly or orient in the upright direction) was recorded at 1 hr or other time points post application (depending on the experiment), whereas mortality (defined as no movement—ataxia) was recorded at 24 hr. […] Synergism studies were performed using the maximal sublethal dose of the fir needle oil in combination with varying concentrations of insecticide to calculate the LD50 value of the insecticide in combination with the natural synergist. SAS 9.4 software was used to calculate the LD50 values using a PROC PROBIT model with Abbott's correction to account for any control mortality. Synergist ratios were calculated as: KD50 or LD50 of compound alone÷KD50 or LD50 of compound+Fir needle oil.
# [2] = test system: pyrethroid-resistant Aedes aegypti strain (Puerto Rico); assay: Topical application on the pyrethroid-resistant Puerto Rico strain: 24-hr LD50 and 1-hr KD50; type: in vivo; design: unit not given beside the values; settings: alone or with FNO 5%
# Experimental: as §1
# [3] = test system: ethoxycoumarin de-ethylase (cytochrome P450 mono-oxygenase); assay: Ethoxycoumarin de-ethylase activity assay on homogenates of topically treated mosquitoes; type: biochemical, Aedes aegypti; settings: 0.2 μL of 5% (w/v) topically, 4 hr before homogenization; ANOVA with Tukey's posttest, P<0.05 (FIG. 9)
# Experimental: Ethoxycoumarin de-ethylase activity was measured according the methods of Anderson and Zhu (2004) with minor modifications. In short, mosquitoes were treated with 0.2 μL of fir needle oil or delta-carene 5% w/v solution in ethanol and incubated for 4 hr prior to sacrificing treated insects. Approximately 100 insects were homogenized in 0.1 PBS solution, and homogenates centrifuged at 10,000×g for 20 minutes at 4° C. The resulting supernatant containing microsomes was then used as the enzyme preparation for the remainder of the assay. In each well, 20 μL of enzyme preparation was added to a final volume of 100 μL 0.1 PBS containing 250 μM reduced β-NADPH and 2 mM ethoxycoumarin. After adding the enzyme solution to the wells, plates were incubated at room temperature for 3 hr. After 3 hr incubation, 10 μL of 3.2 mM of oxidized glutathione was added to each well and 1 U of yeast glutathione reductase was added to each well. […] Fluorescence values were then read at 390/465 nm excitation/[…].
# [4] = test system: Aedes aegypti mosquitoes; type: in vivo
# Experimental: This plant essential oil has been screened in combination with natural pyrethrins to assess the ability of this oil and these compositions to increase mortality and knockdown at 24-hr and 1-hr, respectively. […] As described herein, all compounds were dissolved and applied topically in ethanol or acetone.
# An example of such synergism can be seen in FIG. 4. FIG. 4 is a graph showing synergism of insecticide (natural pyrethrins, NPs), piperonyl butoxide (PBO), and the combination thereof on mortality (24 hour) of Aedes aegypti mosquitoes. Mosquitoes were treated topically with 0.2 μL of different concentrations of insecticide+1% or 5% (w/v) piperonyl butoxide (PBO) in acetone. Mortality was recorded 24 hr after treatment.
# Another example of such synergism is shown in FIG. 5, which is a graph showing antagonism of (natural pyrethrins, NPs), PBO, and the combination on knockdown (1 hour) of Aedes aegypti mosquitoes. Mosquitoes were treated with 0.2 μL different concentrations of insecticide+1% or 5% (w/v) PBO oil in acetone. Mortality was recorded 24 hr after exposure. FIG. 6 is an annotated version of FIG. 5 with arrows denoting statistically significant reduction in knockdown effect.
# FIG. 7 is a graph showing synergism of (natural pyrethrins, NPs), fir needle oil, and the combination thereof on knockdown (1 hour) and mortality (24 hour) of Aedes aegypti mosquitoes. Mosquitoes were treated with 0.2 μL of different concentrations of insecticide+1% or 5% (w/v) fir needle oil in acetone. Mortality was recorded 24 hr after exposure.
# as §1
# [5] = 1-hr knockdown, topical, insecticide with or without 1% fir needle oil, ng dose per mg insect body weight
SMILES,KD50 ([1]; alone or with FNO 5%) [ng/mg],LD50 ([1]; alone or with FNO 5%) [ng/mg],further results
N#Cc1nn(-c2c(Cl)cc(C(F)(F)F)cc2Cl)c(N)c1[S+]([O-])C(F)(F)F (stereo not shown) [Fipronil],10.7,0.1,
"O=[N+]([O-])N=C1NCCN1Cc1ccc(Cl)nc1 [Imidacloprid, 1-(6-chloro-3-pyridylmethyl)-N-nitroimidazolidin-2-ylideneamine]",3.7,1.1,KD50 [2]: 10.7
"CC1=CCC2C(C1)C2(C)C (stereo not shown) [delta-carene, delta-3-carene]",,,ethoxycoumarin de-ethylase (cytochrome P450 mono-oxygenase) activity versus vehicle-treated mosquitoes [3]: not increasing P450 activity
"CC1(C)[C@H](C(=O)O[C@H](C#N)c2cccc(Oc3ccccc3)c2)[C@@H]1C=C(Br)Br [Deltamethrin, (S)-α-cyano-3-phenoxybenzyl (1R)-cis-3-(2,2-dibromovinyl)-2,2-dimethylcyclopropanecarboxylate]",,,"KD50 [4, 5]: 0.003 ng/mg"
"CN1COCN(Cc2cnc(Cl)s2)C1=N[N+](=O)[O-] [Thiamethoxam, 3-((2-chloro-5-thiazolyl)methyl)-5-methyl-4-nitroiminotetrahydro-1,3,5-oxadiazine]",17.2,3.4,
"CC1(C)C(C=C(Cl)Cl)C1C(=O)OCc1cccc(Oc2ccccc2)c1 (racemic) [Permethrin, 3-phenoxybenzyl (1RS)-cis,trans-3-(2,2-dichlorovinyl)-2,2-dimethylcyclopropanecarboxylate]",0.06,0.09,KD50 ([4]; in vivo): 0.06 ng/mg; LD50 ([4]; in vivo): 0.09 ng/mg
"CNC(=N[N+](=O)[O-])NCc1cnc(Cl)s1 [Clothianidin, 1-(2-Chloro-1,3-thiazol-5-ylmethyl)-3-methyl-2-nitroguanidine]",22,4.5,"KD50 [2]: 9.15; KD50 ([1]; clothianidin alone or with 5% w/v FNO, delta-3-carene or bornyl acetate (Table 3)): 22; KD50 [4, 5]: 22 ng/mg; LD50 ([4]; 24-hr lethal dose, topical, insecticide with or without 1% fir needle oil, ng dose per mg insect body weight): 4.5 ng/mg"

# Reference: patent publication US12527329B2, “Compositions and methods relating to insecticides” (priority 2019, dated 2026)
